“And” between values parts separate entries of the source, which are not always exact repeats. Identical values can stand only once. “Also recorded” adds a separate entry of the source.
Assays:
MDA-MB-231 xenograft = assay: Tumor growth inhibition in MDA-MB-231 xenograft; format: in vivo, mice
[1] = tested on: apoptosis pathway (PARP cleavage, caspase-3/7, cleaved cytokeratin-18); assay: Phase 1 apoptosis pathway activation markers in patients; format: in vivo, human
[2] = tested on: advanced solid tumors and lymphoma; assay: Phase 1 anti-tumor activity in patients with refractory solid tumors or lymphoma; format: in vivo, human
Panc1 = Panc1 immunoblotting and Trypan blue staining, alone and with TRAIL; format: cell-based
[3] = mouse, in vivo
[4] = mouse, in vivo; remark: listed apart in the source
[5] = in vivo
[6] = human, in vivo
[7] = tested on: primary pancreatic tumors; details: mouse, in vivo
Method: (§1) An additional 6 primary pancreatic tumors were evaluated at 60 mg/kg.

[8] = Phase 1 safety and tolerability in patients; details: for tolerability: patients
[9] = tested on: primary pancreatic tumors; assay: Patient-derived primary pancreatic cancer explant model
Method: as §1

[10] = tested on: primary human melanoma tumor xenograft; assay: Efficacy in primary human melanoma tumor xenograft models
[11] = CRC Patient 01-202, dose cohort 0.36 mg/m^2
[12] = CRC Patient 01-801, dose cohort 17.2 mg/m^2
[13] = Melanoma Patient 01-703, dose cohort 11.5 mg/m^2
[14] = patients with solid tumors and lymphoma
[15] = 60 mg/kg i.p. twice weekly, 28 days
[16] = TL32711 combined with carboplatin and paclitaxel

## CC[C@H](NC(=O)[C@H](C)NC)C(=O)N1C[C@@H](O)C[C@H]1Cc1c(-c2[nH]c3cc(F)ccc3c2C[C@@H]2C[C@H](O)CN2C(=O)[C@H](CC)NC(=O)[C@H](C)NC)[nH]c2cc(F)ccc12 [TL32711, N-{1S-[2R-(6,6′-Difluoro-3′-{4S-hydroxy-1-[2S-(2S-methylamino-propionylamino)-butyryl]-pyrrolidin-2R-ylmethyl}-1H,1′H-[2,2′]biindolyl-3-ylmethyl)-4S-hydroxy-pyrrolidine-1-carbonyl]-propyl}-2S-methylamino-propionamide]
MDA-MB-231 xenograft; mice bearing MDA-MB-231 xenograft
  cIAP1 inhibition in tumors throughout the dosing interval at which significant tumor growth delay and regressions were observed: > 75%
MDA-MB-231 xenograft; q3D, MDA-MB-231 xenograft
  doses causing significant tumor growth inhibition and regressions: ≥ 2.5 mg/kg
[1]
  PBMC PARD cleavage and plasma caspase-3 activity: dose related increase
  activated serum caspase-3/7 and cleaved cytokeratin-18 levels: dose-related
[2]; [11]
  cycles received before disease progression: Patient received 6 cycles (24 weeks) of TL32711 before disease
  metastatic lesions decreased on CT scan after 2 cycles: CT scan; 3 of 5 metastatic lesions decreased after 2 cycles of
  response by RECIST criteria after 2 cycles: TL32711 - Stable Disease by RECIST criteria
[2]; [12]
  clinical improvement during first 2 cycles: Patient had marked clinical improvement of early satiety and pain
  disease progression after 2 cycles: Patient progressed with development of a new liver lesion after
  patient's CEA after 1 cycle: decreased (150 to 90)
  photopenic lesion developed in a hepatic metastasis after 1 cycle: 4-5 cm
[2]; [13]
  disease progression: Progressed after 3rd cycle with increasing cutaneous lesions
  response by RECIST criteria after 2 cycles: Stable Disease by RECIST criteria after 2 cycles of TL32711
[2]; Phase 1 patients
  anti-tumor activity in patients (overall): promising early signs of anti-tumor activity; also recorded: Evidence of anti-tumor activity observed
Panc1; Panc1, TL32711 alone
  pro-apoptotic effect: dose-dependent pro-apoptotic effect
Panc1; Panc1, TL32711 with TRAIL
  pro-apoptotic effect with TRAIL co-incubation: synergized
Panc1; Panc1, immunoblotting
  cIAP1 degradation and caspase-3 activation: rapid cIAP1 degradation leading to caspase-3 activation
[3]
  TL32711 tumor half-life after increase in exposure: 166 h
  TL32711 tumor half-life before increase in exposure: 56 h
  increase in tumor exposure for a 4-fold increase in dose: 14 fold
[4]
  half-life in plasma: 20 h
  half-life in tumor: 96 h
[5]; human
  half-life in the patient: long half-life
  inter-patient variability in Cmax and AUC: moderate to low
  retention (half-life) in tumor tissues: 49 h
  t1/2 in PBMCs: 29 to 35 h
  terminal half-life in plasma: 35 h
  terminal half-life in tumor tissue: 52 h
[5]; human, iv
  plasma terminal t½: 73 to 79 h
[5]
  estimated tumor exposure in patients versus primary human tumor xenograft models in mice: in excess of the measured drug levels
[6]
  Fever, Number of Grade 1 or 2 Events (%): 4 (11%)
  Grade 3 or Grade 4 Adverse Events attributed to study drug: No Grade 3 or Grade 4 Adverse Events attributed to study drug
  Lymphocytopenia, Number of Grade 1 or 2 Events (%): 2 (6%)
  Nausea, Number of Grade 1 or 2 Events (%): 5 (14%)
  Rash, Number of Grade 1 or 2 Events (%): 3 (8%)
[7]
  relation of efficacy to tumor drug exposure: efficacy correlated with tumor drug exposure
[8]
  tolerability: well tolerated
[8]; [14]
  dose-limiting toxicities: no dose-limiting toxicities
  maximum tolerated dose (MTD): has not been reached
[8]; listed as Compound 15
  tolerability: unexpectedly well tolerated
[8]; two patients, 63 mg/m^2 weekly, 3 weeks on/1 week off
  tolerability at 63 mg/m^2: not well tolerated
[9]; 30 mg/kg i.p. twice weekly
  growth inhibition in primary tumor #17624: significant growth inhibition
  significant growth inhibition in primary tumor #12872: not
[9]; [15]
  T/C in the 2 primary tumors with suboptimal growth inhibition: ~0.4
  T/C in the 6 primary tumors with significant growth arrest/inhibition: −0.1 to 0.2
[9]; all dose levels (30, 45, 60 mg/kg i.p. twice weekly)
  toxicity in the tumor-bearing mice: No significant toxicity
[9]; i.p. twice weekly, dose escalation
  dose achieving significant growth inhibition in both #17624 and #12872: >= 45 mg/kg
[10]; 15 mg/kg twice/week versus 30 mg/kg once/week, primary melanoma model
  anti-tumor activity of biweekly versus weekly dosing schedule: did not result in enhanced anti-tumor activity
[10]; [16]
  models with tumor regressions: 4 of the 6
  reduction in bodyweight (tolerability): < 14%
[10]; single agent TL32711, 30 mg/kg IP
  primary melanoma tumor xenografts with significant tumor growth inhibition: 5 of 6 and 5/6

From patent publication US20140243276A1, “SMAC MIMETIC (BIRINAPANT) FOR USE IN THE TREATMENT OF PROLIFERATIVE DISEASES (CANCER)” (TETRALOGIC PHARMACEUTICALS CORPORATION, priority 2011, published 2014)
